The target in assay [1] is T1, human Cot catalytic domain (30-397 amino acids) (Homo sapiens, UniProt P41279).
T1 construct: Purified recombinant human Cot catalytic domain (30-397 amino acids) was purchased from Cama Biosciences; purchased Cama Biosciences (so in the source)
Description: High Throughput Cot Biochemical Assay (KinEASE TR-FRET). Particulars: read-out: IC50 HTRF. The gist of the method: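 Reaction of 5 nM recombinant human Cot catalytic domain (aa 30-397) with 1 μM STK3 peptide (XL665-labeled) and 400 μM ATP in 10 mM MOPS pH 7.0, 10 mM MgOAc, 1 mM DTT, 0.5 mg/mL BSA, 0.1% DMSO. Phosphopeptide detected by TR-FRET with europium anti-phospho antibody.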
(Time-resolved FRET reads energy transfer from a long-lived donor to a nearby acceptor.)

Assay [2] deals with TNFα production in LPS-stimulated human monocytes. Description: Cot Monocyte TNFα Cell Based Assay. Particulars: Homo sapiens, Monocyte, read-out: EC50 TNF. The method, boiled down: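 Cells at 5,000/well were pretreated with compound for 1 h at 37 °C (0.5% DMSO final), then stimulated with 50 pg/ml LPS for 4 h at 37 °C. Supernatant TNFα was measured by two-antibody TR-FRET after overnight room-temperature incubation; values are percent of control between unstimulated and stimulated wells.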

Setting [3] is: Cot KinEASE TR-FRET, 400 μM ATP.
Setting [4] is: LPS-stimulated human monocytes, TNFα TR-FRET.
[5] abbreviates: Cot KinEASE TR-FRET (HTRF) biochemical assay, 400 μM ATP.
The mark [6] stands for this setting: TNFα in LPS-stimulated human monocytes.
[7] abbreviates: Cot biochemical HTRF (KinEASE TR-FRET) assay.

Read-outs that look alike come from different tables or passages of the source. Bounds are passed on as bounds.

T1 sequence (P41279 30-397): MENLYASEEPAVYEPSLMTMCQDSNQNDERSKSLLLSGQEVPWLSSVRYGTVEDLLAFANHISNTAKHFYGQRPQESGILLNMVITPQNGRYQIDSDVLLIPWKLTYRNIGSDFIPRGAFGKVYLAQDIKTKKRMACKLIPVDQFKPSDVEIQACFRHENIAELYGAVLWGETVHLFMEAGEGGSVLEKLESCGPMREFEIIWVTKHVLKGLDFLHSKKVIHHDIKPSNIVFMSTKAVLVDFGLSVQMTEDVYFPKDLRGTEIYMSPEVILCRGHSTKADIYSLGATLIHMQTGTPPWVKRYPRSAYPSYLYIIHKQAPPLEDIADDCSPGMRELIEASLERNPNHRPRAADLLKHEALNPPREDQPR

In general, IC50 refers to the midpoint of a concentration-inhibition curve. As usually defined, the EC50 is the concentration at which the effect is half-maximal. In the case of `CC(C)(C)CNc1c(C#N)cnc2c(Cl)cc(N[C@@H](c3ccc(F)cc3)c3cn(C4(C(F)(F)F)CCC4)nn3)cc12` [Example 998, (S)-8-chloro-6-(((4-fluorophenyl)(1-(1-(trifluoromethyl)cyclobutyl)-1H-1,2,3-triazol-4-yl)methyl)amino)-4-(neopentylamino)quinoline-3-carbonitrile], the IC50 in assay [1] (setting [3]) was 53 nM. Further, the EC50 in assay [2] (setting [4]) was determined as 250 nM.

As for `CCN1CCC(n2cc([C@@H](Nc3cc(Cl)c4ncc(C#N)c(NCC(C)(C)C)c4c3)c3ccc(Cl)cc3)nn2)CC1` [Example 954, (S)-8-chloro-6-(((4-chlorophenyl)(1-(1-ethylpiperidin-4-yl)-1H-1,2,3-triazol-4-yl)methyl)amino)-4-(neopentylamino)quinoline-3-carbonitrile], the IC50 in assay [1] (setting [3]) turned out to be 5 nM. For the same molecule, in assay [2] (setting [4]), the EC50 is 130 nM.

For `CC(C)(C)CNc1c(C#N)cnc2c(Cl)cc(N[C@@H](c3ccc(F)cc3)c3cn(C4(c5ccccn5)CC4)nn3)cc12` [Example 991, (S)-8-chloro-6-(((4-fluorophenyl)(1-(1-(pyridin-2-yl)cyclopropyl)-1H-1,2,3-triazol-4-yl)methyl)amino)-4-(neopentylamino)quinoline-3-carbonitrile], the IC50 in assay [1] (setting [3]) amounted to 34 nM. In assay [2] (setting [4]), the EC50 stood at 136 nM.

With `Cc1cc(C#N)ccc1[C@H](Nc1cc(C#N)c2ncc(C#N)c(NCC(C)(C)C)c2c1)c1cn(C2(C(F)(F)F)CC2)nn1` [Example 1140, (S)-6-(((4-cyano-2-methylphenyl)(1-(1-(trifluoromethyl)cyclopropyl)-1H-1,2,3-triazol-4-yl)methyl)amino)-4-(neopentylamino)quinoline-3,8-dicarbonitrile], the IC50 in assay [1] (setting [3]) came out at 22 nM. For the same molecule, the EC50 in assay [2] (setting [4]) came out at 119 nM.

For `[2H][C@](Nc1cc(Cl)c2ncc(C#N)c(N[C@@H]3CCOCC3(C)C)c2c1)(c1ccc(F)cc1)c1cn(C2CC2)nn1` [Example 146, 8-chloro-6-(((S)-(1-cyclopropyl-1H-1,2,3-triazol-yl)(4-fluorophenyl)methyl-d)amino)-4-(((R)-3,3-dimethyltetrahydro-2H-pyran-4-yl)amino) quinoline-3-carbonitrile], the IC50 in assay [1] (setting [5]) amounted to 95 nM. Moreover, the EC50 in assay [2] (setting [6]) is 895 nM.

With `CC[C@@H](Nc1c(C#N)cnc2c(Cl)cc(N[C@@H](c3cccc(C(=O)N4CC(OC)C4)c3)c3c[nH]nn3)cc12)c1ccccc1` [Example 559, 8-chloro-6-(((S)-(3-(3-methoxyazetidine-1-carbonyl)phenyl)(1H-1,2,3-triazol-4-yl)methyl)amino)-4-(((R)-1-phenylpropyl)amino)quinoline-3-carbonitrile], the concentration for half-maximal inhibition (IC50) in assay [1] (setting [7]) stood at 14 nM. Further, in assay [2] (setting [6]), the EC50 is 6050 nM.

`N#Cc1cnc2c(Cl)cc(N[C@@H](c3ccc(F)cc3)c3c[nH]nn3)cc2c1NC1CCCC(O)C1` (stereo partly drawn) [Example 438, 8-chloro-6-(((S)-(4-fluorophenyl)(1H-1,2,3-triazol-4-yl)methyl)amino)-4-((3-hydroxycyclohexyl)amino) quinoline-3-carbonitrile]: the IC50 in assay [1] (setting [7]) is 135 nM. In assay [2] (setting [6]), the EC50 amounted to 5130 nM.

In the case of `Cc1c(C#N)cccc1[C@H](Nc1cc(C#N)c2ncc(C#N)c(NCC(C)(C)C)c2c1)c1cn(C2(C3CC3)CC2)nn1` [Example 1157, (S)-6-(((1-([1,1'-bi(cyclopropan)]-1-yl)-1H-1,2,3-triazol-4-yl)(3-cyano-2-methylphenyl)methyl)amino)-4-(neopentylamino)quinoline-3,8-dicarbonitrile], in assay [1] (setting [3]), the IC50 is 3 nM. Also, the EC50 in assay [2] (setting [4]) was 15 nM.

`CC(C)(C)CNc1c(C#N)cnc2c(C#N)cc(N[C@H](c3cn(C4(C(F)(F)F)CC4)nn3)c3cccc(C#N)c3Cl)cc12` [Example 1079, (S)-6-(((2-chloro-3-cyanophenyl)(1-(1-(trifluoromethyl)cyclopropyl)-1H-1,2,3-triazol-4-yl)methyl)amino)-4-(neopentylamino)quinoline-3,8-dicarbonitrile]: in assay [1] (setting [3]), the IC50 turned out to be 19 nM. In addition, the EC50 in assay [2] (setting [4]) is 220 nM.

With `[2H][C@](Nc1cc(Cl)c2ncc(C#N)c(Nc3cccc(Cl)c3OC3CC3)c2c1)(c1ccc(F)cc1)c1cn(C2CC2)nn1` [Example 110, (S)-8-chloro-4-((3-chloro-2-cyclopropoxyphenyl)amino)-6-(((1-cyclopropyl-1H-1,2,3-triazol-4-yl)(4-fluorophenyl)methyl-d)amino) quinoline-3-carbonitrile], in assay [1] (setting [5]), the IC50 stood at 16 nM. In assay [2] (setting [6]), the EC50 was 133 nM.

For the molecule `CC(C)(C)N1CCC(n2cc([C@@H](Nc3cc(Cl)c4ncc(C#N)c(NN5CCOCC5)c4c3)c3ccccc3)nn2)CC1` [Example 580, (S)-6-(((1-(1-(tert-butyl)piperidin-4-yl)-1H-1,2,3-triazol-4-yl)(phenyl)methyl)amino)-8-chloro-4-(morpholinoamino)quinoline-3-carbonitrile], the IC50 in assay [1] (setting [7]) came out at 287 nM. In assay [2] (setting [6]), the EC50 came out at 1590 nM.

For the molecule `Cc1c(C#N)cccc1[C@H](Nc1cc(Cl)c2ncc(C#N)c(NCC(C)(C)C(F)(F)F)c2c1)c1cn(C23CC(C2)C3)nn1` [Example 1107, (S)-6-(((1-(bicyclo[1.1.1]pentan-1-yl)-1H-1,2,3-triazol-4-yl)(3-cyano-2-methylphenyl)methyl)amino)-8-chloro-4-((3,3,3-trifluoro-2,2-dimethylpropyl)amino) quinoline-3-carbonitrile], the IC50 in assay [1] (setting [3]) amounted to 3 nM. Also, the EC50 in assay [2] (setting [4]) was 65 nM.

Take `CC(C)(C)CNc1c(C#N)cnc2c(C#N)cc(N[C@H](c3cn(C4(C(N)=O)CCCC4)nn3)c3ccccc3Cl)cc12` [Example 1020, (S)-1-(4-((2-chlorophenyl) ((3,8-dicyano-4-(neopentylamino)quinolin-6-yl)amino)methyl)-1H-1,2,3-triazol-1-yl)cyclopentane-1-carboxamide]: in assay [1] (setting [3]), the IC50 came out at 6 nM. Also, the EC50 in assay [2] (setting [4]) turned out to be 161 nM.

As for `[2H][C@](Nc1cc(Cl)c2ncc(C#N)c(Nc3cnc(F)c(Cl)c3)c2c1)(c1ccc(F)cc1)c1cn(C2CC2)nn1` [Example 338, (S)-8-chloro-4-((5-chloro-6-fluoropyridin-3-yl)amino)-6-(((1-cyclopropyl-1H-1,2,3-triazol-4-yl)(4-fluorophenyl)methyl-d)amino)quinoline-3-carbonitrile], in assay [1] (setting [5]), the IC50 amounted to 8 nM. Further, the EC50 in assay [2] (setting [6]) turned out to be 183 nM.

In the case of `[2H]C(Nc1cc(Cl)c2ncc(C#N)c(NC3CC4CCCC(C4)C3)c2c1)(c1ccc(F)cc1)c1cn(C2CC2)nn1` (stereo in doubt) [Example 278, 4-(((1R,5S)-bicyclo[3.3.1]nonan-3-yl)amino)-8-chloro-6-(((S)-(1-cyclopropyl-1H-1,2,3-triazol-4-yl)(4-fluorophenyl)methyl-d)amino)quinoline-3-carbonitrile], the IC50 in assay [1] (setting [5]) was 222 nM. In addition, the EC50 in assay [2] (setting [6]) was above 10000 nM.

For the molecule `Cc1c(C#N)cccc1[C@H](Nc1cc(C#N)c2ncc(C#N)c(NCC(C)(C)C(F)(F)F)c2c1)c1cn(C2(C)CC2)nn1` [Example 1146, (S)-6-(((3-cyano-2-methylphenyl)(1-(1-methylcyclopropyl)-1H-1,2,3-triazol-4-yl)methyl)amino)-4-((3,3,3-trifluoro-2,2-dimethylpropyl)amino)quinoline-3,8-dicarbonitrile], the IC50 in assay [1] (setting [3]) was 2 nM. The EC50 in assay [2] (setting [4]) turned out to be 33 nM.

On to `CC(C)(C)N1CCC(n2cc([C@@H](Nc3cc(Cl)c4ncc(C#N)c(NC5CCCCC5)c4c3)c3ccc(Cl)cc3)nn2)CC1` [Example 715, (S)-6-(((1-(1-(tert-butyl)piperidin-4-yl)-1H-1,2,3-triazol-4-yl)(4-chlorophenyl)methyl)amino)-8-chloro-4-(cyclohexylamino)quinoline-3-carbonitrile], for which, in assay [1] (setting [7]), the IC50 was 62 nM. For the same molecule, the EC50 in assay [2] (setting [6]) was determined as 2080 nM.

Take `N#Cc1cnc2c(Cl)cc(N[C@@H](c3cccc(CN4CCCC4)c3)c3c[nH]nn3)cc2c1Nc1ccc(F)c(Cl)c1` [Example 575, (S)-8-chloro-4-((3-chloro-4-fluorophenyl)amino)-6-(((3-(pyrrolidin-1-ylmethyl)phenyl) (1H-1,2,3-triazol-4-yl)methyl)amino)quinoline-3-carbonitrile]: the IC50 in assay [1] (setting [7]) was 10 nM. Further, the EC50 in assay [2] (setting [6]) is 429 nM.

In the case of `[2H][C@](Nc1cc(Cl)c2ncc(C#N)c(NCC(C)(C)C)c2c1)(c1cccc(C#N)c1)c1cn(C(F)(F)C(N)=O)nn1` [Example 971, (S)-2-(4-(((8-chloro-3-cyano-4-(neopentylamino)quinolin-6-yl)amino)(3-cyanophenyl)methyl-d)-1H-1,2,3-triazol-1-yl)-2,2-difluoroacetamide], in assay [1] (setting [3]), the IC50 was 4 nM. In addition, the EC50 in assay [2] (setting [4]) was found to be 270 nM.

As for `Cn1cnc(C(Nc2cc(Cl)c3ncc(C#N)c(Nc4ccc(F)c(Cl)c4)c3c2)c2ccc(F)cc2)c1` (stereo not drawn) [Example 887, 8-chloro-4-((3-chloro-4-fluorophenyl)amino)-6-(((4-fluorophenyl)(1-methyl-1H-imidazol-4-yl)methyl)amino)quinoline-3-carbonitrile], the IC50 in assay [1] (setting [7]) was 70 nM. Also, the EC50 in assay [2] (setting [6]) worked out at 1890 nM.

With `[2H][C@](Nc1cc(Cl)c2ncc(C#N)c(NC3CCC3)c2c1)(c1ccc(F)cc1)c1cn(C2CC2)nn1` [Example 215, (S)-8-chloro-4-(cyclobutylamino)-6-(((1-cyclopropyl-1H-1,2,3-triazol-4-yl)(4-fluorophenyl)methyl-d)amino)quinoline-3-carbonitrile], the IC50 in assay [1] (setting [5]) turned out to be 119 nM. Moreover, in assay [2] (setting [6]), the EC50 is 2880 nM.

These data come from US10316017B2, “COT modulators and methods of use thereof” (Gilead Sciences, Inc., priority 2015, dated 2019).
